How the values were obtained:
Assay type in all cases: cell-based
HeLa cells [1] = assay: Surface azide labeling of HeLa cells with AzNAM, DBCO-FAM fluorescence by flow cytometry; conditions: AzNAM 125 μM for 20 hours, versus cells receiving no azide-modified sugar
Protocol: In separate cultures, HeLa cells were added to wells of a 12-well plate at 10,000 cells/well, and cultured for 72 hours under normal conditions. The wells were washed with 1 ml of PBS, and 0.5 ml of DMEM-10% FBS was added. AzNAM was added to a final concentration of 125 μM, with cells receiving no azide-modified sugar as controls. After 20 hours, cells were harvested with CellStripper (250 μl/well), washed with PBS, and subjected to flow analysis.

HeLa cells [2] = assay: Surface azide labeling of HeLa cells with AzNAM, DBCO-FAM fluorescence read in plate reader; conditions: AzNAM 10-125 μM for 20 hours, then 10 μM DBCO-FAM for 1 hour
Protocol: Initially, cells were cultured in a suitable culture vessel such that their level of confluency at the time of addition of the azide-modified sugar, AzNAM, was not more than 80%.
In particular, HeLa cells were plated in 6-well plates (2.5×10^4 cells/well) and incubated for 48 hours in DMEM-10% FBS medium in a standard 5% CO2 atmosphere. Medium from each well was removed, and each well was washed with 2 ml of phosphate buffered saline (PBS), and fresh DMEM-FBS (1 ml) added. Subsequently, varying amounts of AzNAM (solubilized in DMSO) were added to the wells in small (10 μl) volumes to produce the desired final concentrations in the range 10-125 μM. After an additional 20 hours incubation, the medium in each well was removed, and the wells were washed with 2 ml of PBS, followed by addition of 1 ml of PBS. Then, a fluorescent azide reactive molecule, DBCO-FAM (Broadpharm), was directly added to each well to produce a final concentration of 10 μM.
Plates with added DBCO-FAM were protected from bright light and incubated for 1 hour at room temperature. Supernatants in each well were removed, and each well was washed twice with 2 ml of PBS. […] After pelleting and washing in PBS, cells were resuspended in 150 μl of PBS and counted. Defined numbers in 50 μl volumes in a 96-well Blackwell plate (Corning) were assayed for fluorescence in a fluorescent plate reader (Tecan).

Jurkat cells = assay: Placement of trastuzumab mimotope on azide-modified cells, flow analysis; conditions: AzNAM 100 μM for 24 hours
Protocol: (§1) Jurkat and HeLa cells were cultured for three days in their optimal media (RPMI-10% FBS/DMEM-10% FBS, respectively) in 6-well plates to reach a state of sub-confluency. AzNAM (from 100 mM DMSO stock) was added to designated wells to a […] of 100 μM. Control wells received equal volumes of DMSO only. After 24 hours, cells were harvested (directly for the non-adherent Jurkat cells, and with Cell Stripper reagent for HeLa cells), and washed in PBS. […] Cells treated with the DBCO-Jmim peptide were then subjected to standard staining with Trastuzumab (BioVision), followed by secondary staining with FITC-conjugated goat-anti-human kappa chain antibody. During the staining procedure, the control washed DBCO-FAM treated cells were kept on ice. Finally, all cells were subjected to flow cytometric analysis.

HeLa cells [3] = assay: as above; conditions: AzNAM 100 μM for 24 hours
Protocol: as §1

[4] = then 10 μM DBCO-Jmim for 1 hour, trastuzumab plus FITC goat-anti-human kappa, versus DMSO controls

## azido-N-acetylmannosamine [AzNAM]
HeLa cells [1]
  flow analysis peak shift (DBCO-FAM fluorescence): marked and well-demarcated peak shifts
HeLa cells [2]
  cell-associated fluorescence (96-well plate format): cell-associated fluorescence increased as a function of the levels of AzNAM
Jurkat cells; then 10 μM DBCO-FAM for 1 hour
  fluorescence after metabolic labeling and DBCO-FAM treatment (flow analysis): positive fluorescence
Jurkat cells; [4]
  staining with trastuzumab (flow analysis): strong staining with trastuzumab
HeLa cells [3]; then 10 μM DBCO-FAM for 1 hour
  fluorescence after metabolic labeling and DBCO-FAM treatment (flow analysis): positive fluorescence
HeLa cells [3]; [4]
  staining with trastuzumab (flow analysis): strong staining with trastuzumab
